According to US12084462B2, “Spiro bicyclic inhibitors of menin-MLL interaction” (Janssen Pharmaceutica NV, priority 2016, dated 2024):
Where two headings read alike, the source gives them in different places.

Columns and labels:
MV-4-11 = assay: Proliferation assay (spheroid assay) MV-4-11; type: cell-based, human; conditions: Homo sapiens, MV4-11, MV-4-11; averaged values; read-out: Spheroid assay MV-4-11 (IC50 (μM))
Method: (§1) The anti-proliferative effect of menin/MLL protein/protein interaction inhibitor test compounds was assessed in human leukemia cell lines. The cell lines MV-4-11 and MOLM14 harbor MLL translocations and express the MLL fusion proteins MLL-AF4 and MLL-AF9, respectively, as well as the wildtype protein from the second allele. […] K562 and KG1 were used as a control cell lines containing two MLL wildtype alleles in order to exclude compounds that display general cytotoxic effects.
(§2) MV-4-11 and MOLM14 were cultured in RPMI-1640 (Sigma Aldrich) supplemented with 10% fetal bovine serum (HyClone), 2 mM L-glutamine (Sigma Aldrich) and 50 μg/ml gentamycin (Gibco). K562 were propagated in RPMI-1640 (Sigma Aldrich) supplemented with 20% fetal bovine serum (HyClone), 2 mM L-glutamine (Sigma Aldrich) and 50 μg/ml gentamycin (Gibco). KG1 were cultured in Iscove's MDM (Gibco) supplemented with 20% fetal bovine serum (HyClone), 2 mM L-glutamine (Sigma Aldrich) and 50 μg/ml gentamycin (Gibco).
(§3) In order to assess the anti-proliferative effects, 1,500 MV-4-11, 300 MOLM14, 750 K562 or 1,300 KG1 cells were seeded in 200 μl media per well in 96-well round bottom, ultra-low attachment plates (Costar, catalogue number 7007). Cell seeding numbers were chosen based on growth curves to ensure linear growth throughout the experiment. Test compounds were added at different concentrations and the DMSO content was normalized to 0.3%. Cells were incubated for 8 d at 37° C. and 5% CO2. Spheroid like growth was monitored in real-time by live-cell imaging (IncuCyteZOOM, Essenbio, 4× objective) acquiring one image every four hours for 8 d. Confluence (%) as a measure of spheroid size was determined using an integrated analysis tool.
(§4) In order to determine the cumulative effect of the test compounds over time, the area under the curve (AUC) in a plot of confluence against time was calculated. Confluence at the beginning of the experiment (t=0) was used as baseline for the AUC calculation.
(§5) Absolute IC50 values were calculated according to the following procedure: % Control=(AUC sample/AUC control)*100 AUC control=mean AUC of control values (cells without compound/DMSO as vehicle control)
(§6) A non-linear curve fit was applied using the least squares (ordinary) fit method to the plot of % control versus compound concentration. Based on this, the absolute IC50 value (half maximal inhibitory concentration of the test compound causing an anti-proliferative effect of 50% relative to the vehicle control) was calculated.

MOLM14 = assay: Proliferation assay (spheroid assay) MOLM14; type: cell-based, human; conditions: Homo sapiens
Method: as §1, §2, §3, §4, §5, §6

menin = biological target: T1, menin (Homo sapiens, UniProt O00255, T541A); assay: Menin/MLL fluorescence polarization (FP) assay; type: binding; conditions: averaged values over all measurements; read-out: Menin FP assay (IC50 (μM))
T1 sequence (O00255 with tags, fused parts or gaps T541A): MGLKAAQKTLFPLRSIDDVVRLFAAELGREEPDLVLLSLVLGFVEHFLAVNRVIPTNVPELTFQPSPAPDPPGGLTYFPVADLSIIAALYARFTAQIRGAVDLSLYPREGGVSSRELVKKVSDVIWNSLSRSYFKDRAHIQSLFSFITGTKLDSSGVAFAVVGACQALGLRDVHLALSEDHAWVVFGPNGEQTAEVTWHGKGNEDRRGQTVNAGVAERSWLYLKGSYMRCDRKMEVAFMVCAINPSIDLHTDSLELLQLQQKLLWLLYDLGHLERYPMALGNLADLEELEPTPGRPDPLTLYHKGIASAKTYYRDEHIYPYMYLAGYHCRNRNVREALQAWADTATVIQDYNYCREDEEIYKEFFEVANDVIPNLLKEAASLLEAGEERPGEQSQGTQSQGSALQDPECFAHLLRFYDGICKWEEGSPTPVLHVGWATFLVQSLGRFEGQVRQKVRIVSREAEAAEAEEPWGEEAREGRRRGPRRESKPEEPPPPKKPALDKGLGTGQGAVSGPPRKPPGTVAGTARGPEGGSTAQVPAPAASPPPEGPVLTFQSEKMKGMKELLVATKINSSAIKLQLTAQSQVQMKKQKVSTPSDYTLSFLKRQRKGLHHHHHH
Method: 1) Menin/MLL Fluorescence Polarization Assay
To a non-surface binding, black 384-well microtiter plate was added 50 nL 160× test compound in DMSO and 4 μL 2× menin in assay buffer (40 mM Tris·HCl, pH 7.5, 50 mM NaCl, 1 mM DTT and 0.001% Tween 20). After incubation of test compound and menin for 10 min at ambient temperature, 4 μL 2×FITC-MBM1 peptide (FITC-β-alanine-SARWRFPARPGT-NH2 (SEQ ID NO: 2)) in assay buffer was added, the microtiter plate centrifuged at 1000 rpm for 1 min and the assay mixtures incubated for 15 min at ambient temperature. The relative amount of menin·FITC-MBM1 complex present in an assay mixture is determined by measuring the fluorescence polarization (FP) of the FITC label with a BMG Pherastar plate reader (ex. 485 nm/em. 520 nm) at ambient temperature. The final concentrations of reagents in the binding assay are 100 nM menin, 5 nM FITC-MBM1 peptide and 0.625% DMSO in assay buffer. Dose-response titrations of test compounds are conducted using an 11 point, three-fold serial dilution scheme, starting at 31 μM.
Compound potencies were determined by first calculating % inhibition at each compound concentration according to equation 1: % inhibition=((HC−LC)−(FP^compound−LC))/(HC−LC))*100 (Eqn 1)
Where LC and HC are the FP values of the assay in the presence or absence of a saturating concentration of a compound that competes with FITC-MBM1 for binding to menin, and FP^compound is the measured FP value in the presence of the test compound. HC and LC FP values represent an average of at least 16 replicates per plate. […] 2) Proliferation Assay

[1] = MOLM-14, MOLM14, averaged values, read-out: Spheroid assay MOLM14 (IC50 (μM))

SMILES	IC50 (MV-4-11)	further results
Cn1cc2c(n1)CCCC2N1CC2(CCN(c3ncnc4sc(CC(F)(F)F)cc34)C2)C1 (single isomer, unassigned) [Compound 137]	10.1 µM	IC50 (MOLM14; [1]): > 15 µM
Cn1cc2c(n1)CCCC2N1CC2(CCN(c3ncnc4sc(CC(F)(F)F)cc34)C2)C1 (single isomer, unassigned) [Compound 138]	–	IC50 (MOLM14; MOLM-14, 192 h, MOLM14 (MLL-AF9), 8 d, absolute IC50 from AUC of confluence, individual measurements (not averaged), read-out: (2) Spheroid assay MOLM14 (IC50 (μM))): 7 µM
FC(F)(F)Cc1cc2c(N3CCC4(CN(Cc5ccnnc5)C4)C3)ncnc2s1 [Compound 4]	–	IC50 (menin): 0.73 µM
FC(F)(F)Cc1cc2c(N3CCC4(CN(Cc5cnc6ccccn56)C4)C3)ncnc2s1 [Compound 7]	–	IC50 (menin): 0.73 µM
FC(F)(F)Cc1cc2c(N3CCC4(CN(Cc5cnc(Cl)cn5)C4)C3)ncnc2s1 [Compound 8]	–	IC50 (menin): 0.79 µM
FC(F)(F)Cc1cc2c(N3CCC4(CN(Cc5ccncn5)C4)C3)ncnc2s1 [Compound 9]	–	IC50 (menin): 0.84 µM
FC(F)(F)Cc1cc2c(N3CCC4(CN(Cc5cncnc5)C4)C3)ncnc2s1 [Compound 10]	–	IC50 (menin): 2.31 µM
CC(C)CN1CC2(C1)CN(c1ncnc3sc(CC(F)(F)F)cc13)C2 [Compound 44]	4.1 µM	IC50 (MOLM14; [1]): > 15 µM
OCc1ccccc1CN1CC2(CCN(c3ncnc4sc(CC(F)(F)F)cc34)C2)C1 [Compound 57]	4.2 µM	IC50 (MOLM14; [1]): 8.6 µM
Cc1nn(C)cc1C(C(C)C)N1CC2(CCN(c3ncnc4sc(CC(F)(F)F)cc34)C2)C1 (stereo not shown) [Compound 161]	4.2 µM	–
CC(C)[C@@H](C1CCNCC1)N1CC2(CCN(c3ncnc4sc(CC(F)(F)F)cc34)C2)C1 [Compound 169]	3.5 µM	–
CC(Cc1cc(F)cc(F)c1)N1CC2(CCN(c3ncnc4sc(CC(F)(F)F)cc34)C2)C1 (stereo not shown) [Compound 170]	4.3 µM	–
Cc1c([C@@H](C(C)C)N2CC3(CCN(c4ncnc5sc(CC(F)(F)F)cc45)C3)C2)cnn1C [Compound 173]	3.2 µM	–
Cn1cc([C@@H](C2CCNCC2)N2CC3(CCN(c4ncnc5sc(CC(F)(F)F)cc45)C3)C2)cn1 [Compound 201]	12.7 µM	IC50 (MOLM14; [1]): > 15 µM
Cn1cc([C@H](C2CCNCC2)N2CC3(CCN(c4ncnc5sc(CC(F)(F)F)cc45)C3)C2)cn1 [Compound 202]	> 15 µM	–
CC(C)[C@@H](c1cnn(C)c1)N1CC2(CCN(c3ncnc4sc(CC(F)(F)F)cc34)C2)C1 [Compound 203]	7.2 µM	–
CC(c1cn[nH]c1)N1CC2(CCN(c3ncnc4sc(CC(F)(F)F)cc34)C2)C1 (stereo not shown) [Compound 223]	6.1 µM	–

Continued, in another order:

IC50 (MV-4-11)	SMILES	further results
0.21 µM	Cc1ccc(CN2CC[C@@]3(CCN(c4ncnc5sc(CC(F)(F)F)cc45)C3)C2)cc1 (single isomer, unassigned) [Compound 289]	IC50 (MOLM14; [1]): 1.3 µM
0.47 µM	Cc1ccc(CN2CC[C@]3(CCN(c4ncnc5sc(CC(F)(F)F)cc45)C3)C2)cc1 (single isomer, unassigned) [Compound 290]	IC50 (MOLM14; [1]): 1.2 µM
1.16 µM	Cn1cc(CN2CC[C@@]3(CCN(c4ncnc5sc(CC(F)(F)F)cc45)C3)C2)cn1 (single isomer, unassigned) [Compound 295]	IC50 (MOLM14; [1]): 6.7 µM
1.7 µM	CC(C1CCOCC1)N1CC2(CCN(c3ncnc4sc(CC(F)(F)F)cc34)C2)C1 (stereo not shown) [Compound 145]	IC50 (MOLM14; [1]): 7.3 µM
3.1 µM	CC(C)[C@@H](C1CCOCC1)N1CC2(CCN(c3ncnc4sc(CC(F)(F)F)cc34)C2)C1 [Compound 162]	–
2.4 µM	Cc1nn(C)cc1[C@@H](C(C)C)N1CC2(CCN(c3ncnc4sc(CC(F)(F)F)cc34)C2)C1 [Compound 166]	–
3.1 µM	COc1ccccc1CC(C)N1CC2(CCN(c3ncnc4sc(CC(F)(F)F)cc34)C2)C1 (stereo not shown) [Compound 171]	–
2.9 µM	Cc1c(C(C(C)C)N2CC3(CCN(c4ncnc5sc(CC(F)(F)F)cc45)C3)C2)cnn1C (stereo not shown) [Compound 172]	–
1.3 µM	CC(C)C[C@H](C1CCOCC1)N1CC2(CCN(c3ncnc4sc(CC(F)(F)F)cc34)C2)C1 [Compound 179]	–
1.9 µM	CC(C)C[C@@H](C1CCOCC1)N1CC2(CCN(c3ncnc4sc(CC(F)(F)F)cc34)C2)C1 [Compound 180]	–
1.3 µM	CC(Cc1cccc(F)c1)N1CC2(CCN(c3ncnc4sc(CC(F)(F)F)cc34)C2)C1 (stereo not shown) [Compound 183]	–
1.3 µM	FC(F)(F)Cc1cc2c(N3CC[C@@]4(CCN(CC5CCOCC5)C4)C3)ncnc2s1 [Compound 185]	–
1.3 µM	CC(C)C(c1cnn(C)c1)N1CC[C@]2(CCN(c3ncnc4sc(CC(F)(F)F)cc34)C2)C1 (stereo partly shown) [Compound 186]	–
1.4 µM	FC(F)(F)Cc1cc2c(N3CC[C@]4(CCN(CC5CCOCC5)C4)C3)ncnc2s1 [Compound 187]	–
1.9 µM	CC(C)C[C@@H](C1CNC1)N1CC2(CCN(c3ncnc4sc(CC(F)(F)F)cc34)C2)C1 [Compound 213]	–
0.2 µM	CC(C)C(C1CNC1)N1CC2(CCN(c3ncnc4sc(CC(F)(F)F)cc34)C2)C1 (stereo not shown) [Compound 222]	–
1.3 µM	CCC(C1CNC1)N1CC2(CCN(c3ncnc4sc(CC(F)(F)F)cc34)C2)C1 (stereo not shown) [Compound 259]	–
0.32 µM	CCN1CC(C(C(C)C)N2CC3(CCN(c4ncnc5sc(CC(F)(F)F)cc45)C3)C2)C1 (stereo not shown) [Compound 303]	IC50 (MOLM14; [1]): 1.02 µM
2.4 µM	FC(F)(F)Cc1cc2c(N3CCC4(CN(CC5CCNCC5)C4)C3)ncnc2s1 [Compound 311]	–
0.73 µM	CC(Cc1ccc(C#N)cc1)N1CC2(CCN(c3ncnc4sc(CC(F)(F)F)cc34)C2)C1 (stereo not shown) [Compound 314]	–
1.09 µM	Cc1ccc(CC(C2CNC2)N2CC3(CCN(c4ncnc5sc(CC(F)(F)F)cc45)C3)C2)cc1 (stereo not shown) [Compound 318]	–
1.37 µM	COc1cccc(CC(C)N2CC3(CCN(c4ncnc5sc(CC(F)(F)F)cc45)C3)C2)c1 (stereo not shown) [Compound 320]	–
1.1 µM	COc1ccc(CC(C)N2CC3(CCN(c4ncnc5sc(CC(F)(F)F)cc45)C3)C2)cc1 (stereo not shown) [Compound 321]	–
1.7 µM	CC(Cc1ccccc1F)N1CC2(CCN(c3ncnc4sc(CC(F)(F)F)cc34)C2)C1 (stereo not shown) [Compound 322]	–
0.75 µM	CC(Cc1ccc(O)cc1)N1CC2(CCN(c3ncnc4sc(CC(F)(F)F)cc34)C2)C1 (stereo not shown) [Compound 323]	–
1.9 µM	Cc1ccc(CC(C)N2CC3(CCN(c4ncnc5sc(CC(F)(F)F)cc45)C3)C2)cc1 (stereo not shown) [Compound 324]	–
